The target of one series is Human A2AAR (Homo sapiens, UniProt P29274). Put plainly: A2AAR competition binding ([3H]-ZM241385 displacement). Also on record: expressed in transfected cells; host or cells: HeLa-A2AAR cell line (membranes). As to conditions: radioligand displacement, mean±SEM of three experiments in duplicate; read-out: A2AAR binding affinity Ki. As to the method:
Binding assays. Human A2AAR competition binding experiments were carried out in multiscreen GF/C 96-well plates (Millipore, Madrid, Spain) pretreated with binding buffer (50 mM Tris-HCl, 1 mM EDTA, 10 mM MgCl2, 2 U/ml adenosine deaminase, pH=7.4).
Each well contained 5 µg of membranes from a He l a-A2AAR cell line (protein concentration […]
compound studied. Non-specific binding was determined in the presence of 50 µM NE C A (Sigma E2387). The reaction mixture (200 µl/well) was incubated at 25 °C for 30 min, after which it was filtered and washed four times with 250 µl wash buffer (50 mM Tris -HCl, 1 mM EDTA, 10 mM MgCl 2, pH=7. 4) before measuring in a microplate beta scintillation counter (Microbeta Trilux, PerkinElmer, Madrid, Spain). Three independent experiments were carried out to calculate K i values (n=3). […]

Series [1] is described as follows: Blood-brain distribution in rats. The class given is in vivo. As to conditions: male, Sprague Dawley, rat, 24 mg kg^−1 IP. How it is done: Blood-brain distribution. Measurements of blood-brain distribution in rats were performed by Admescope (Finland). The male Sprague Dawley rats (120-157 g) were housed in air-conditioned rooms (12h dark/light cycle) at 22 °C and a humidity of 55%. Animals were allowed to acclimatize to the site for at least five days prior to the study.
Compound 30 (24 mg/kg, formulated in 17% DMSO in saline) was administered intraperitoneally and blood samples were collected at 10, 30, and 50 min after dosing. Within 30 min following the sampling, the blood was centrifuged for plasma separation (room temperature; 10 min; 2700 G). The plasma samples were transferred into plastic tubes, frozen and stored at –20 °C until analysis. Brains were perfused under terminal isoflurane anaesthesia at 10, 30 and 50 min after dosing (n=6 per time point). For the perfusion, the heart of the rat was expo sed and major veins leading to the right atrium were severed. […]
Evaluation of compound 30 in rodent model of Parkinsonism. […] Two weeks after the unilateral 6-OHDA lesion, rats were injected with apomorphine (1 mg/kg, IP; Sigma) and their contralateral rotations were measured to determine the degree of nigrostriatal denervation. […] The number of rotations was calculated automatically with Noldus EthoVision XT11. […]

Each structure is given as a SMILES string.

Sequence of Human A2AAR (P29274 whole entry): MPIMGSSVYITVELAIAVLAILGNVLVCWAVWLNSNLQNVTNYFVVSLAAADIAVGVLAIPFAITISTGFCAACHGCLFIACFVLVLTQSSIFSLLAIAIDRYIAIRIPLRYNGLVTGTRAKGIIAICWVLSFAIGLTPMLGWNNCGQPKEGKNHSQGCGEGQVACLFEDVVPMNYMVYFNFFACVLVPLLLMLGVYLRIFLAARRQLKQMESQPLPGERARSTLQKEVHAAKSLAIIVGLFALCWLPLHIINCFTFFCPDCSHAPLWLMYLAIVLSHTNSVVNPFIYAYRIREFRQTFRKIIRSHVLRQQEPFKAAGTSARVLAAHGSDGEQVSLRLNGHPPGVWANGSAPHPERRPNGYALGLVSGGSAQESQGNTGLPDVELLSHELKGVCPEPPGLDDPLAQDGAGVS

What is called Ki is the equilibrium dissociation constant of an inhibitor or competing ligand from its target. Turning to `CCN(CCCCC(=O)Nc1nc2c(Br)cccc2s1)C1Cc2ccccc2C1` [Compound 22], the Ki at Human A2AAR was 340 ± 50 nM.

For `CCCN(CCCCC(=O)Nc1nc2c(OC)cccc2s1)C1Cc2ccccc2C1` [Compound 26], the Ki at Human A2AAR worked out at 610 ± 90 nM.

With `CCCN(CCCCC(=O)Nc1nc2c(Br)cccc2s1)C1Cc2ccccc2C1` [Compound 27], the Ki on Human A2AAR turned out to be 390 ± 50 nM.

For the compound `CCCN(CCCCC(=O)Nc1nc2c(OC)ccc(OC)c2s1)C1Cc2ccccc2C1` [Compound 30], the concentration at 30 min in series [1] (brain, at 30 min, read-out: total concentration in the brain) is about 3000 nM. For the same compound, the Kp at 0.5 h in series [1] (brain/plasma, peak after 30 min, mean±SD, read-out: brain-to-plasma ratio) came to 0.79 ± 0.13. The Ki on Human A2AAR turned out to be 160 ± 30 nM.

For the origin of these results see PMC8456950, “Structure‐Guided Design of G‐Protein‐Coupled Receptor Polypharmacology” (Angewandte Chemie (International Ed. in English), 2021).
